Reference: PMC7094222 (Febs Letters, 2015)

Assays:
Assay type in all cases: biochemical, Human Coxsackievirus B3
CVB3 3C^pro [1] = target: T1, CVB3 3C^pro (Coxsackievirus B3, UniProt P03313); assay: FRET-based enzyme assay of CVB3 3C^pro
CVB3 3C^pro [2] = target: T1, CVB3 3C^pro; assay: Reversibility test by large and rapid dilution of enzyme-inhibitor complex; conditions: 50-fold IC50 pre-incubated 30 min at 35 °C, then diluted 50-fold
CVB3 3C^pro [3] = target: T1, CVB3 3C^pro; assay: Enzyme kinetics study

T1 sequence (P03313 1541-1723): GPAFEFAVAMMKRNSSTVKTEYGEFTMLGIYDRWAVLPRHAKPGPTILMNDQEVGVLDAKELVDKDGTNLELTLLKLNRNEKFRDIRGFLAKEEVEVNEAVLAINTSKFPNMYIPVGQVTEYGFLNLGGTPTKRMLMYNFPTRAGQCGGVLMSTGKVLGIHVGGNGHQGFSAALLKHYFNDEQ

NC(CO)C(=O)N/N=C\c1ccc(O)c(O)c1O (centres unmarked) [8a, (Z)-2-amino-3-hydroxy-N'-(2,3,4-trihydroxybenzylidene)propanehydrazide]
IC50 (CVB3 3C^pro [1]): 2.72 µM

NC(CO)C(=O)NNCc1ccc(O)c(O)c1 (centres unmarked) [9e, 2-amino-N'-(3,4-dihydroxybenzyl)-3-hydroxypropanehydrazide]
inhibition at 50 µM (CVB3 3C^pro [1]; read-out: % Inhibition 50 μM): 56.2%

NC(CO)C(=O)NNCc1ccc(O)c(O)c1O (centres unmarked) [Benserazide, 2-amino-3-hydroxy-N'-(2,3,4-trihydroxybenzyl)propanehydrazide]
reversibility of inhibition (CVB3 3C^pro [2]): reversible pattern | Ki (CVB3 3C^pro [3]): 4.7 µM | mechanism of the inhibition (CVB3 3C^pro [3]; inhibitor 0–10 μM, substrate 0–400 μM, V max reduced without a change in K m): non-competitive inhibitor
